Assay results: patent publication US20240398817A1, “CARDIO- AND RENOSAFE ANTIDIABETIC THERAPY” (priority 2018, published 2024)
“Also recorded” adds a separate entry of the source.

Test system: patients with type 2 diabetes at high vascular risk
Assay: Cardiovascular and Renal Outcomes Trial: linagliptin 5 mg once daily vs placebo on top of standard of care
Format: in vivo
Conditions: for Albuminuria progression: patients, %: of 2162 analysed; for Hospitalisation for heart failure vs placebo, in words: subgroup without insulin use at baseline
Experimental: The effect of linagliptin on cardiovascular risk in adult patients with type 2 diabetes mellitus and with increased CV risk evidenced by a history of established macrovascular or renal disease (e.g. as defined herein) was evaluated in a multi-center, multi-national, randomized, double-blind parallel group trial. The trial compared the risk of experiencing a major adverse cardiovascular event (MACE) between linagliptin and placebo when these were added to and used concomitantly with standard of care treatments for diabetes (HbA1c), cardiovascular risk factors and renal disease.
The primary endpoint in this trial was the time to first occurrence of three point (3P) MACE. A major adverse cardiac event was defined as a cardiovascular death or a nonfatal myocardial infarction (MI) or a nonfatal stroke. The statistical analysis plan tested for non-inferiority for the occurrence of (3P) MACE. […] The secondary endpoint was a renal composite, defined as renal death or sustained end stage renal disease or sustained decrease of 40% or more in eGFR.
Type 2 diabetes patient with insufficient glycemic control (naïve or pre-treated with any antidiabetic background medication, excluding treatment with GLP-1 receptor agonists, DPP-4inhibitors or SGLT-2 inhibitors if ≥consecutive 7 days, e.g. having HbA1c 6.5-10%), and high risk of cardiovascular events, e.g. defined by: • albuminuria (micro or macro) and previous macrovascular disease: e.g. defined according to Condition I as indicated below; • and/or • impaired renal function: e.g. as defined according to Condition II as indicated below;
Background and aims: People with type 2 diabetes (T2D) are at increased risk for hospitalization for heart failure (hHF), particularly in the setting of concomitant cardiovascular (CV) and/or kidney disease. […] Here we present analyses of HF outcomes with the DPP-4 inhibitor linagliptin (LINA) vs. placebo (PBO) from a Cardiovascular and Renal Outcomes Trial assessing cardiovascular safety and renal microvascular outcome in patients with type 2 diabetes at high vascular risk, a large CV outcomes trial that enrolled participants with T2D at high risk for hHF due to concomitant CV and/or chronic kidney disease. Materials and methods: People with T2D and concomitant CV and/or kidney disease were randomized to receive LINA 5 mg, or PBO once daily (1:1), on top of standard of care. All hHF, CV outcomes, and deaths were centrally adjudicated, with individual and composite HF-related outcomes analyses comparing LINA vs. placebo. Investigator-reported HF-related adverse events, whether or not confirmed by adjudication, were also analyzed. A Cox proportional hazards model adjusting for region and history of HF was used for analyses of first events. Recurrent hHF events were analyzed using a negative binomial model.
Methods: The present Cardiovascular and Renal Outcomes Trial randomized people with T2D and i) concomitant CV disease with UACR >30 mg/g or ii) prevalent CKD (i.e. GFR <45 ml/min/1.73m2 and/or UACR >200 mg/g) to receive the DPP-4 inhibitor linagliptin (5 mg) or placebo once daily in a double-blind fashion. The primary CV endpoint was 3P-MACE, with a key secondary kidney endpoint (adjudicated ESKD, renal death, or sustained ≥40% decrease in eGFR from baseline) and other renal outcomes (including albuminuria and eGFR slope) also assessed. Subgroups were assessed by baseline kidney function (eGFR ≥/<45 ml/min/1.73m2and eGFR ≥/<30, 45 or 60 ml/min/1.73m2).
Adults with type 2 diabetes, HbA1c 6.5-10.0% inclusive, and high CV risk were eligible for inclusion. […] Macrovascular disease eligibility criteria was based on documented and confirmed history of myocardial infarction, coronary artery disease, stroke, carotid artery disease, or peripheral artery disease. Participants with end-stage kidney disease (ESKD), defined as eGFR <15 or requiring maintenance dialysis, were excluded.

SMILES: CC#CCn1c(N2CCC[C@@H](N)C2)nc2c1c(=O)n(Cc1nc(C)c3ccccc3n1)c(=O)n2C [Linagliptin, 1-[(4-methyl-quinazolin-2-yl)methyl]-3-methyl-7-(2-butyn-1-yl)-8-(3-(R)-amino-piperidin-1-yl)-xanthine]
- Hospitalization for unstable angina: rate/1000 patient-years (in vivo): 5.5 per 1000 patient years
- Hypersensitivity reactions, all AEs: % (in vivo): 3.3%
- Hypersensitivity reactions, all AEs: N (in vivo): 114
- Investigator reported HF events: HR vs placebo (in vivo): 0.87
- Investigator reported HF events: events (in vivo): 243
- Investigator reported hypoglycemia: % (in vivo): 29.7%
- Investigator reported hypoglycemia: N (in vivo): 1036
- New initiation of loop diuretics or hHF: HR vs placebo (in vivo): 0.95
- New initiation of loop diuretics or hHF: participants (in vivo): 330/2530
- New introduction of loop diuretics: HR vs placebo (in vivo): 0.94
- New introduction of loop diuretics: participants (in vivo): 318/2530
- Non-cardiovascular death: % (in vivo): (3.2) %
- Non-cardiovascular death: hazard ratio vs placebo (in vivo): 1.02
- Non-cardiovascular death: no. (in vivo): 112
- Non-cardiovascular death: rate/1000 patient-years (in vivo): 14.3 per 1000 patient years
- Non-fatal myocardial infarction: % (in vivo): (4.5) %
- Non-fatal myocardial infarction: hazard ratio vs placebo (in vivo): 1.15
- Non-fatal myocardial infarction: no. (in vivo): 156
- Non-fatal myocardial infarction: rate/1000 patient-years (in vivo): 20.6 per 1000 patient years
- Non-fatal stroke: % (in vivo): (1.9) %
- Non-fatal stroke: hazard ratio vs placebo (in vivo): 0.88
- Non-fatal stroke: no. (in vivo): 65
- Non-fatal stroke: rate/1000 patient-years (in vivo): 8.5 per 1000 patient years
- Pancreatic cancer: % (in vivo): 0.3%
- Pancreatic cancer: N (in vivo): 11
- Participants with ≥2 hHF events: % (in vivo): 1.7%
- Participants with ≥2 hHF events: n (in vivo): 60
- Pemphigoid (bullous pemphigoid): % (in vivo): 0.2%
- Pemphigoid (bullous pemphigoid): N (in vivo): 7
- Reduction of risk of albuminuria progression compared to placebo (in vivo): about 14%
- Reduction of risk of microvascular renal and/or eye complications compared to placebo (in vivo): about 14%
- Renal death, sustained ESKD, or sustained decrease of 50% or more in eGFR from baseline: hazard ratio vs placebo (in vivo): 0.98
- Risk of HHF regardless of baseline renal function, in words (in vivo): did not affect the risk of HHF
- Risk of albuminuria progression vs placebo, in words (in vivo): significantly reduced
- Risk of hospitalization for heart failure, in words (in vivo): no increase in the risk
- Serious adverse events: % (in vivo): 37.0%
- Serious adverse events: N (in vivo): 1293
- Skin lesions: % (in vivo): 0.1%
- Skin lesions: N (in vivo): 5
- Stent thrombosis, hospitalisation for peripheral vascularisation, retinopathy-related endpoints vs placebo, in words (in vivo): no significant difference
- Sustained decrease of 30% or more in eGFR with eGFR <60; and renal death, sustained ESRD or CV death vs placebo, in words (in vivo): no significant difference
- Time to first event of investigator reported events or adjudicated hHF: HR vs placebo (in vivo): 0.92
- Time to first event of investigator reported events or adjudicated hHF: events (in vivo): 305
- eGFR changes over time and transition in CKD status vs placebo, in words (in vivo): no clinically meaningful differences
- eGFR slope (MDRD): between-group difference vs placebo, estimate ± SE (in vivo): −0.175 ± 0.151 /year
- eGFR-slope, in words (in vivo): unaffected
- hHF or all-cause mortality: HR vs placebo (in vivo): 0.95
- hHF or all-cause mortality: events (in vivo): 499
- 4-point MACE: % (in vivo, listed as linagliptin): 13.3%
- Acute pancreatitis, adjudication confirmed: N (in vivo, listed as linagliptin): 9
- Albuminuria progression: hazard ratio (95% CI) vs placebo (in vivo, listed as linagliptin): 0.86
- Albuminuria progression: rate/100 patient-years (in vivo, listed as linagliptin): 21.4 per 100 patient-years
- Hospitalization for heart failure or cardiovascular death: % (in vivo, listed as linagliptin): 11.6%
- Skin lesions: % (in vivo, listed as linagliptin): 0.2%
- Risk of major adverse cardiovascular events (3P-MACE) vs placebo, in words (median follow up 2.2 years): non-inferior to placebo
- Risk of renal outcome events vs placebo, in words (median follow up 2.2 years): did not increase the risk
- Risk of major adverse cardiovascular events (3P-MACE) vs placebo, in words (median follow up 2.2 years, listed as linagliptin): did not increase the risk
- Any adverse events: N (n = 3494): 2697
- eGFR slope (MDRD) from baseline to last value on treatment/year, estimate ± SE (n = 6740 both groups): −2.459 ± 0.106 /year
- hHF events (first+recurrent): rate ratio vs placebo (negative binomial model): 0.94
- Albuminuria progression: patients, %: (35.3) %
- Albuminuria progression: patients, % (listed as linagliptin): 35.3%
- Contributing to composite microvascular outcome: patients with albuminuria progression, % (of n = 3494): 21.3%
- Albuminuria progression: number of patients (patients analysed 2162 (n = 4291 both groups)): 763
- Rate of hypoglycemia compared to placebo, in words (patients taking sulfonylurea at baseline): numerically higher rate
- Incidence of severe hypoglycaemia (patients using insulin at baseline): 4.4%
- Incidence of severe hypoglycaemia (patients using sulfonylurea at baseline): 2.0%
- Time to onset of intensification or initiation of insulin vs placebo, in words (patients without insulin use at baseline): later
- Cumulative number of hHF events (first+recurrent) (recurrent events analysis): 326
- Patients who achieved glycaemic control at the end of the study irrespective of antidiabetic medication: % (study end): 29.0%
- Patients who achieved glycaemic control at the end of the study irrespective of antidiabetic medication: n (study end): 1012
- Proportion achieving glycaemic control at study end without additional or increased antidiabetic medication vs placebo, in words (study end visit): significantly greater
- Risk of hHF vs placebo, in words (subgroup baseline SBP <140 mmHg): statistically lower risk of hHF
- Risk of hHF vs placebo, in words (subgroup enrolled from North America or Asia, listed as LINA): nominally significant reductions
- Risk of hHF vs placebo, in words (subgroup enrolled from North America or Asia, listed as linagliptin): Statistically significant lower risk of hHF
- Hospitalisation for heart failure vs placebo, in words (listed as LINA): nominally significant reduction
- Hospitalisation for heart failure vs placebo, in words (listed as linagliptin): favouring linagliptin in patients without insulin; also recorded: Statistically significant lower risk of hHF
- 4P-MACE, CV death, all-cause mortality, and MI-related endpoints vs placebo, in words (tertiary endpoints): no significant differences
- Fatal and non-fatal stroke and transient ischaemic attack vs placebo, in words (tertiary endpoints): no significant differences
- hHF; CV death or hHF; all-cause mortality or hHF; heart failure AEs vs placebo, in words (tertiary endpoints): no significant differences
- Severe hypoglycemic event (requiring assistance): % (treated population): 3.0%
- Severe hypoglycemic event (requiring assistance): N (treated population): 106
- UACR vs placebo, in words (up to Week 132): statistically significant and clinically meaningful reduction
- UACR: difference at week 36 (gMean ratio of relative change for linagliptin versus placebo) (week 36): 0.87
- UACR: difference at week 84 (gMean ratio of relative change for linagliptin versus placebo) (week 84): 0.88
